“And” between values parts separate entries of the source, which are not always exact repeats. Equal entries are not always repeated. Inconclusive results and toxic doses are left out.
System: P388 leukemia ip, CD2F1 mice, survival T/C
Assay: NCI In Vivo Anticancer Drug Screen. Data for tumor model P388 Leukemia (intraperitoneal) in CD2F1 (CDF1) mice
Conditions: endpoint: median survival time, higher = longer survival
Summary of the method: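 Mice carrying the transplanted tumor received test compound or vehicle. Survival was recorded in each group, and the value is the treated-group measurement divided by that of the vehicle-treated control group.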

[1] = dose: 50.0 mg/kg/injection, schedule: Q01DX005 (ip), vehicle: Klucel (hydroxypropylcellulose) (HPC)
[2] = dose: 100.0 mg/kg/injection, schedule: Q01DX005 (ip), vehicle: Klucel (hydroxypropylcellulose) (HPC)
[3] = dose: 50.0 mg/kg/injection, schedule: Q01DX005 (ip), vehicle: saline with Tween-80
[4] = dose: 100.0 mg/kg/injection, schedule: Q01DX005 (ip), vehicle: saline with Tween-80
[5] = dose: 200.0 mg/kg/injection, schedule: Q01DX005 (ip), vehicle: saline with Tween-80
[6] = dose: 60.0 mg/kg/injection, schedule: Q01DX005 (ip), vehicle: Klucel (hydroxypropylcellulose) (HPC)
[7] = dose: 120.0 mg/kg/injection, schedule: Q01DX005 (ip), vehicle: Klucel (hydroxypropylcellulose) (HPC)
[8] = dose: 240.0 mg/kg/injection, schedule: Q01DX005 (ip), vehicle: Klucel (hydroxypropylcellulose) (HPC)
[9] = dose: 50.0 mg/kg/injection, schedule: Q01DX009 (ip), vehicle: Klucel (hydroxypropylcellulose) (HPC)
[10] = dose: 100.0 mg/kg/injection, schedule: Q01DX009 (ip), vehicle: Klucel (hydroxypropylcellulose) (HPC)

## COc1c2occc2c(NC(=O)C(F)(F)F)c2ccc(=O)oc12
dose: 100.0 mg/kg/injection, schedule: Q04DX002 (ip), vehicle: saline
  T/C: 100 % of control
dose: 200.0 mg/kg/injection, schedule: Q04DX002 (ip), vehicle: saline
  T/C: 101 % of control

## O=S(=O)(CI)OCCCl
[1]
  T/C: 102 % of control
[2]
  T/C: 110 % of control

## CC1CC(C)/C(=N/NC(N)=O)C(C(O)CC2CCC(=O)NC2=O)C1 (stereo not given)
[3]
  T/C: 100 % of control
[4]
  T/C: 115 % of control
[5]
  T/C: 115 % of control

## O=Cc1c(-c2ccccc2)nc2sccn12
dose: 50.0 mg/kg/injection, schedule: Q04DX003 (ip), vehicle: Klucel (hydroxypropylcellulose) (HPC)
  T/C: 96 % of control
dose: 100.0 mg/kg/injection, schedule: Q01DX001 (ip), vehicle: Klucel (hydroxypropylcellulose) (HPC)
  T/C: 100 % of control
dose: 100.0 mg/kg/injection, schedule: Q04DX003 (ip), vehicle: Klucel (hydroxypropylcellulose) (HPC)
  T/C: 96 % of control
dose: 200.0 mg/kg/injection, schedule: Q01DX001 (ip), vehicle: Klucel (hydroxypropylcellulose) (HPC)
  T/C: 100 % of control
dose: 200.0 mg/kg/injection, schedule: Q04DX003 (ip), vehicle: Klucel (hydroxypropylcellulose) (HPC)
  T/C: 91 % of control
dose: 400.0 mg/kg/injection, schedule: Q01DX001 (ip), vehicle: Klucel (hydroxypropylcellulose) (HPC)
  T/C: 99 % of control

## C[Si](C)(C)[Si](C)(C)C
dose: 50.0 mg/kg/injection, schedule: Q01DX009 (ip), vehicle: saline
  T/C: 98 % of control
dose: 100.0 mg/kg/injection, schedule: Q01DX009 (ip), vehicle: saline
  T/C: 111 % of control
dose: 200.0 mg/kg/injection, schedule: Q01DX009 (ip), vehicle: saline
  T/C: 102 % of control

## COc1cc([C@H]2c3cc4c(cc3C[C@H]3COC(=O)[C@@H]32)OCO4)cc(OC)c1OC
dose: 12.5 mg/kg/injection, schedule: Q04DX002 (ip), vehicle: saline with Tween-80
  T/C: 92 % of control
dose: 25.0 mg/kg/injection, schedule: Q04DX002 (ip), vehicle: saline with Tween-80
  T/C: 86 % of control
dose: 50.0 mg/kg/injection, schedule: Q04DX002 (ip), vehicle: saline with Tween-80
  T/C: 89 % of control

## c1cc(C2CCOCC2)ccn1
dose: 12.5 mg/kg/injection, schedule: Q01DX009 (ip), vehicle: saline with Tween-80
  T/C: 100 % of control
dose: 12.5 mg/kg/injection, schedule: Q04DX003 (ip), vehicle: saline with Tween-80
  T/C: 100 % of control
dose: 25.0 mg/kg/injection, schedule: Q01DX009 (ip), vehicle: saline with Tween-80
  T/C: 90 % of control
dose: 25.0 mg/kg/injection, schedule: Q04DX003 (ip), vehicle: saline with Tween-80
  T/C: 100 % of control
dose: 50.0 mg/kg/injection, schedule: Q01DX009 (ip), vehicle: saline with Tween-80
  T/C: 100 % of control
dose: 50.0 mg/kg/injection, schedule: Q04DX003 (ip), vehicle: saline with Tween-80
  T/C: 95 % of control

## CCc1nn(Cc2ccccc2)c2nc(C)c(CCc3ccccc3)c(Cl)c12
[6]
  T/C: 92 % of control
[7]
  T/C: 91 % of control
[8]
  T/C: 94 % of control

## CC1(c2ccc(N)cc2)NC(=O)NC1=O (stereo not given)
[9]
  T/C: 99 % of control
[10]
  T/C: 96 % of control

## O=C(Nc1c(Cl)cccc1Cl)Oc1c(Br)cc(Br)cc1Br
[6]
  T/C: 108 % of control
[7]
  T/C: 101 % of control
[8]
  T/C: 102 % of control

## NC(=NCCCC(NCc1ccccc1)C(=O)O)N[N+](=O)[O-] (stereo not given)
dose: 12.5 mg/kg/injection, schedule: Q01DX009 (ip), vehicle: Klucel (hydroxypropylcellulose) (HPC)
  T/C: 98 % of control
dose: 25.0 mg/kg/injection, schedule: Q01DX009 (ip), vehicle: Klucel (hydroxypropylcellulose) (HPC)
  T/C: 99 % of control
[9]
  T/C: 99 % of control and 100 % of control
[10]
  T/C: 99 % of control and 100 % of control
dose: 200.0 mg/kg/injection, schedule: Q01DX009 (ip), vehicle: Klucel (hydroxypropylcellulose) (HPC)
  T/C: 100 % of control and 96 % of control
dose: 400.0 mg/kg/injection, schedule: Q01DX009 (ip), vehicle: Klucel (hydroxypropylcellulose) (HPC)
  T/C: 94 % of control

## Cc1cc2nc(C(C)C(=O)c3ccc(Cl)cc3)c(=O)[nH]c2cc1C (stereo not given)
dose: 1.88 mg/kg/injection, schedule: Q01DX005 (ip), vehicle: saline with Tween-80
  T/C: 100 % of control
dose: 3.75 mg/kg/injection, schedule: Q01DX005 (ip), vehicle: saline with Tween-80
  T/C: 104 % of control
dose: 7.5 mg/kg/injection, schedule: Q01DX005 (ip), vehicle: saline with Tween-80
  T/C: 86 % of control

## COC(=O)c1cc2c3c(ccc2[nH]1)N(C(=O)c1cc2c4c(ccc2[nH]1)N(C(=O)c1cc2c5c(ccc2[nH]1)N(C(N)=O)CC5)CC4)CC3
dose: 12.5 mg/kg/injection, schedule: Q01DX005 (ip), vehicle: DMSO
  T/C: 110 % of control
dose: 25.0 mg/kg/injection, schedule: Q01DX005 (ip), vehicle: DMSO
  T/C: 111 % of control
dose: 50.0 mg/kg/injection, schedule: Q01DX005 (ip), vehicle: DMSO
  T/C: 105 % of control
dose: 100.0 mg/kg/injection, schedule: Q01DX005 (ip), vehicle: DMSO
  T/C: 112 % of control

## Cc1c([N+](=O)[O-])c(=O)oc2c1ccc1occc(=O)c12
[3]
  T/C: 96 % of control
[4]
  T/C: 89 % of control
[5]
  T/C: 90 % of control

## COc1cc2c(cc1OC)C(C1c3cc(OC)c(OC)cc3-c3c(OC)c(OC)cc4c3C1N(C)CC4)C1c3c(cc(OC)c(OC)c3-2)CCN1C (stereo not given)
dose: 100.0 mg/kg/injection, schedule: Q04DX003 (ip), vehicle: saline
  T/C: 99 % of control
dose: 200.0 mg/kg/injection, schedule: Q04DX003 (ip), vehicle: saline
  T/C: 100 % of control
dose: 400.0 mg/kg/injection, schedule: Q04DX003 (ip), vehicle: saline
  T/C: 97 % of control

## C1=CC2CC1CC2[P+](c1ccccc1)(c1ccccc1)c1ccccc1 (stereo not given)
dose: 12.5 mg/kg/injection, schedule: Q01DX001 (ip), vehicle: saline
  T/C: 102 % of control
dose: 25.0 mg/kg/injection, schedule: Q01DX001 (ip), vehicle: saline
  T/C: 115 % of control
dose: 50.0 mg/kg/injection, schedule: Q01DX001 (ip), vehicle: saline
  T/C: 97 % of control

## COC1OC(CO)C(O)C(O)C1N1C(=O)c2ccccc2C1=O (stereo not given)
[1]
  T/C: 100 % of control
dose: 50.0 mg/kg/injection, schedule: Q01DX005 (ip), vehicle: saline
  T/C: 97 % of control
[2]
  T/C: 98 % of control
dose: 100.0 mg/kg/injection, schedule: Q01DX005 (ip), vehicle: saline
  T/C: 97 % of control
dose: 200.0 mg/kg/injection, schedule: Q01DX005 (ip), vehicle: Klucel (hydroxypropylcellulose) (HPC)
  T/C: 97 % of control
dose: 200.0 mg/kg/injection, schedule: Q01DX005 (ip), vehicle: saline
  T/C: 101 % of control

## O=C1C(N2CC2)=C(N2CC2)C(=O)c2ncncc21
dose: 2.5 mg/kg/injection, schedule: Q01DX005 (ip), vehicle: saline
  T/C: 105 % of control
dose: 5.0 mg/kg/injection, schedule: Q01DX005 (ip), vehicle: saline
  T/C: 104 % of control and 113 % of control
dose: 10.0 mg/kg/injection, schedule: Q01DX005 (ip), vehicle: saline
  T/C: 107 % of control

## CCCCn1c2nc(=O)[nH]c(=O)c-2[n+]([O-])c2ccccc21
dose: 25.0 mg/kg/injection, schedule: Q01DX001 (ip), vehicle: saline with Tween-80
  T/C: 102 % of control
dose: 50.0 mg/kg/injection, schedule: Q01DX001 (ip), vehicle: saline with Tween-80
  T/C: 102 % of control

## COc1ccc2[nH]c3c(C)c4cc[n+](C)c(C)c4cc3c2c1
dose: 1.56 mg/kg/injection, schedule: Q04DX002 (ip), vehicle: water
  T/C: 97 % of control
dose: 3.12 mg/kg/injection, schedule: Q04DX002 (ip), vehicle: water
  T/C: 104 % of control
dose: 6.25 mg/kg/injection, schedule: Q04DX002 (ip), vehicle: water
  T/C: 107 % of control
dose: 10.0 mg/kg/injection, schedule: Q04DX002 (ip), vehicle: water
  T/C: 200 % of control
dose: 12.5 mg/kg/injection, schedule: Q04DX002 (ip), vehicle: water
  T/C: 113 % of control
dose: 20.0 mg/kg/injection, schedule: Q04DX002 (ip), vehicle: water
  T/C: 115 % of control
dose: 25.0 mg/kg/injection, schedule: Q04DX002 (ip), vehicle: water
  T/C: 117 % of control
dose: 40.0 mg/kg/injection, schedule: Q04DX002 (ip), vehicle: water
  T/C: 112 % of control
dose: 50.0 mg/kg/injection, schedule: Q04DX002 (ip), vehicle: water
  T/C: 123 % of control

## [NH-]CC(=O)O.[NH-]CC(=O)O.[Ni+2]
dose: 6.25 mg/kg/injection, schedule: Q01DX005 (ip), vehicle: saline with Tween-80
  T/C: 100 % of control
dose: 12.5 mg/kg/injection, schedule: Q01DX005 (ip), vehicle: saline with Tween-80
  T/C: 100 % of control

## N#CCS(=O)CC(N)C(=O)O (stereo not given)
[3]
  T/C: 102 % of control
[4]
  T/C: 101 % of control
[5]
  T/C: 100 % of control
